Test results from patent publication US20200375963A1 (priority 2017, published 2020).

What was measured:
Assay type in all cases: cell-based, human
HIF-1α [1] = test: HIF-1α immunoblot of HEK293T cells
Description: (§1) Leukoreduction filters (Terumo BCT, Lakewood, Colo.), waste products of platelet donation process, were used to isolate PBMCs by an IRB-approved protocol. PBMCs were isolated using Histopaque-1077 (Sigma). Monocyte-enriched PBMCs (MEPs) were prepared using cold-aggregation method with slight modifications (30,60) Monocytes were isolated from MEPs or PBMCs using EasySep Human CD14 Positive Selection Kit (STEMCELL Technologies). Flow cytometric verification of isolated CD14+ cells were performed using RPCI core facility services. The MEPs were cultured at an average density of 25-35×10^6/ml in 1 or 2 ml per well in 6- or 12-well standard tissue culture plates under standard conditions (37° C./5% CO2) in RPMI-1640 medium with 10% FBS, 100 U/ml penicillin and […] streptomycin (Mediatech). Isolated CD14+ and CD14− cells were cultured at approximately 5×10^6 cell/ml and 7×10^6 cells per ml densities, respectively. THP-1 and TLA-HEK293T cell lines were purchased from ATCC, and Open Biosystems®, respectively, and cultured in recommended conditions. THP-1 cells were cultured in 10^6 cells per 100 μl in 96-well culture plates in ATCC-formulated-1640 medium (30-2001), whereas 293T cells were cultured in DMEM medium supplemented with 10% FBS.
(§2) Cells were cultured under 1% or 6% O2, 5% CO2 and 94% N2 at 37° C. using Xvivo System (Biospherix). Human ‘universal’ type I IFN was obtained from PBL Assay Science and used at 600 U/ml. Atpenin A5 (Cayman chemical #11898), myxothiazol (Sigma-Aldrich, #T5580) and 2-Thenoyltrifluoroacetone (TTFA) (Sigma-Aldrich, #T27006) were used at 1-2 μM and 400 μM final concentrations, respectively. DFO (Sigma-Aldrich #D9533) and DMOG (Sigma-Aldrich #D3695) were used in 0.5 mM and 1.0 mM final concentrations, respectively.
(§3) 2× Laemmeli buffer (BIO-RAD) was used to prepare whole cell lysates. The lysate resuspended in the Laemmeli buffer was heated at 95° C. for 15 minutes, and 40 μl of the sample was used to perform gel electrophoresis on pre-cast, 4%-15% gradient polyacrylamide gels (Mini-PROTEAN TGX, Bio-Rad) in Laemmeli buffer system. Mouse monoclonal anti-HIF1α (product number GTX628480, GT10211; 1:1000 dilution) and mouse monoclonal anti-β-actin (product number AM4302, AC-15; 1:15,000 dilution) was used to detect HIF-1α or actin, respectively followed by incubation with HRP-conjugated goat anti-mouse antibodies (Life Technologies) at 1:2000 dilution.

HIF-1α [2] = test: HIF-1α immunoblot of CD14+ and CD14− primary cells
Description: as §1, §2, §3

[3] = system: hypoxia-response elements (HRE) from PGK1, a HIF-1α target gene; test: HRE-luciferase reporter in HEK293T cells; details: 293T
Description: It is possible that HIF-1α may have degraded depending on cell type, time of analysis (24 h) or another factor. Therefore, we further examined the effect of AtA5 in HEK293T embryonic kidney cell line and THP-1 monocytic leukemia cell line over a 24 hour period. Several studies in cell lines have reported normoxic stabilization of HIF-1α upon knocking down MTCII (Selak et al., (2005), Cancer. Cell, 7, 77-85, Guzy et al., (2008), Mol. Cell. Biol., 28, 718-731, Cervera et al., (2008), Cancer Res., 68, 4058-4067). […] Since AtA5 appeared to suppress HIF-1α in mild hypoxia, we exposed the cells to both 6% and 1% O2. […] To confirm the suppression of HIF-regulated gene expression, we used a plasmid construct expressing firefly luciferase under the control of three hypoxia-response elements […] from PGK1, a HIF-1α target gene.
HEK293T cells were cotransfected with the 400 ng of HRE-luciferase (Addgene, plasmid #26731), 1 ng of pRL-SV40 plasmid, 600 ng of pcDNA 3.1(+) (control empty vector) per well at ˜50-60% confluency using jetPRIME (Polyplus-transfection) in 12-well culture plates as per the manufacturer's instructions. Transfection efficiency was 60%-80% as assessed by fluorescent microscopy of cells co-transfected with the pLemiR plasmid DNA (Open Biosystems) for expression of a red fluorescent protein. Cells were harvested 2 days after transfection for measurement of their HRE and Renilla luciferase activities using Dual-Luciferase Reporter Assay System (Promega). HRE expression was quantified as a ratio of HRE/Renilla luciferase activities.

[4] = system: A3A-mediated RNA editing (SDHB c.136 C>U) in monocyte-enriched PBMCs (MEPs); test: SDHB c.136 C>U RNA editing in monocyte-enriched PBMCs (allele specific RT-qPCR)
Description: as §1, §2
(§4) RNA and plasmid DNA were isolated with commercial kits (TRIzol, Life Technologies and Qiagen, respectively). RNA/DNA was quantified by Nanodrop 2000 (Thermo Fisher). Proteins were quantified using Bio-Rad Dc assay with BSA standards. RNA was reverse transcribed with the Transcriptor First Strand cDNA Synthesis (Roche) kit. SDHB c.136C>U RNA editing was quantified by allele specific RT-qPCR PCR oligonucleotide primers (FIG. 13) were obtained from Integrated DNA Technologies, Inc. ADM, ELL2, HILPDA, NGLY1, MET, TKTL1, VEGFA and B2M gene expression levels was assessed by qPCR using FastStart Taq DNA polymerase and SYBR Green I dye on a LightCycler 480 System (Roche). Quantification cycle values were calculated by the instrument software using the maximum second derivative method and the mean quantification cycle value of duplicate PCR reactions was used for analysis. Delta delta CT method is used to infer gene expression changes.

[5] = system: hypoxia-regulated genes (HILPDA, VEGFA) in THP-1 cells; test: RT-qPCR of hypoxia-regulated genes in THP-1 cells; details: THP-1, normoxia or hypoxia (1%), 24 hours, HILPDA and VEGFA
Description: (§5) Leukoreduction filters (Terumo BCT, Lakewood, Colo.), waste products of platelet donation process, were used to isolate PBMCs by an IRB-approved protocol. PBMCs were isolated using Histopaque-1077 (Sigma). Monocyte-enriched PBMCs (MEPs) were prepared using cold-aggregation method with slight modifications (30,60) Monocytes were isolated from MEPs or PBMCs using EasySep Human CD14 Positive Selection Kit (STEMCELL Technologies). Flow cytometric verification of isolated CD14+ cells were performed using RPCI core facility services. […]
as §4, with “RNA was reverse transcribed with the Transcriptor First Strand cDNA Synthesis (Roche) kit.” left out, “Delta delta CT method is used to infer gene expression changes.” left out

[6] = system: monocyte-enriched PBMCs (MEPs); test: Oxygen consumption in MEPs (MitoXpress-Xtra phosphorescent oxygen probe); details: approximately 3 hours, n=3 donors
Description: (§6) We first measured oxygen consumption and L-lactate levels to confirm the effect of AtA5 and MXT on mitochondrial respiration in MEPs. We used a phosphorescent oxygen probe (MitoXpress-Xtra) which is quenched by oxygen. Cellular respiration in a closed system depletes oxygen and increases the fluorescence. […] Normoxic induction of RNA editing by MXT is also confirmed in a separate experiment from three additional donors (FIG. 11).
(§7) Oxygen consumption was measured using phosphorescent oxygen probe, MitoXpress-Xtra (Cayman Dual Assay Kit, item no. 601060). Monocytes were enriched to >50% purity by short-term cold aggregation and first cultured in standard conditions for 24 hours without treatment to stimulate metabolic activity. Cells were then centrifuged at 200×g for 7 minutes and resuspended in 1 ml RPMI/1% FBS with or without mitochondrial inhibitors. Cells are covered by mineral oil after addition of MitoXpress-Xtra following manufacturer's protocol. The fluorescence was kinetically measured on a plate reader (Synergy H1) at 20 sec intervals for approximately 3 hours (delay 70 μsec, collection time 30 μsec). Supernatants of the oxygen consumption assay were used to measure L-lactate levels following manufacturer's instructions.

HIF-1α [7] = test: HIF-1α immunoblot of THP-1 cells
Description: as §1
Cells were cultured under 1% or 6% O2, 5% CO2 and 94% N2 at 37° C. using Xvivo System (Biospherix). […]

[8] = system: monocyte-enriched PBMCs (MEPs); test: L-Lactate levels in extra-cellular media of MEPs; details: supernatants of the oxygen consumption assay
Description: as §6, §7

[9] = system: hypoxia-regulated genes (ELL2, VEGFA) in 293T cells; test: RT-qPCR of hypoxia-regulated genes in 293T cells; details: normoxia and hypoxia (1% O2), 24 hours
Description: as §5
as §4, with “RNA was reverse transcribed with the Transcriptor First Strand cDNA Synthesis (Roche) kit.” left out, “Delta delta CT method is used to infer gene expression changes.” left out

[10] = system: hypoxia-related gene expression in CD14+ monocytes; test: Gene expression in CD14+ monocytes (RNA seq, RT-qPCR); details: for mRNA expression of VEGFA and HILPDA: isolated CD14+ monocytes, normoxia, 1 day, n=3 donors
[11] = system: SDHB c.136C>U RNA editing in CD14+ monocytes; test: SDHB c.136C>U RNA editing in CD14+ monocytes isolated after culture of MEPs; details: CD14+ cells, AtA5/normoxia 2 days, n=3 donors; normoxic controls 5.4%±1.7%
Source text: We examined whether MTCII also regulates induction of gene expression in primary monocytes under hypoxia or when inactivated, as observed in SDH-mutated paragangliomas. To test the impact of MTCII inhibition on monocyte gene expression, we cultured MEPs (n=3 donors) in normoxia (1 day), hypoxia (1 day) and AtA5/normoxia (2 days), isolated CD14+ monocytes and performed RNA seq analysis. […] HIF1A but not EPAS1 (HIF2A) or HIF3A is expressed robustly (RPKM averages 21.5, 0.17 and 0.01, respectively) in monocytes. […]
as §4, with “RNA was reverse transcribed with the Transcriptor First Strand cDNA Synthesis (Roche) kit.” left out, “Delta delta CT method is used to infer gene expression changes.” left out

[12] = HEK293T, normoxia, 24 hours, DMOG 1 mM, DFO 0.5 mM, AtA5 1 μM
[13] = inhibitor jointly with hypoxia (1% O2), compared to hypoxia alone
[14] = hypoxia (1% O2), monocytes isolated from PBMCs then cultured 24 hours, three donors
[15] = normoxia, monocytes isolated from PBMCs then cultured 24 hours

SMILES | stabilization of HIF-1α (HIF-1α [1]; [12]) | HRE-driven expression (ratio of HRE/Renilla luciferase activities) ([3]; 6% O2, 24 hours) | stabilization of HIF-1α (HIF-1α [1]; 293T, 1% O2, 24 hours) | stabilization of HIF-1α (HIF-1α [1]; 293T, 6% O2, 24 hours) | SDHB c.136 C>U RNA editing [4, 13] | SDHB c.136 C>U RNA editing ([4]; normoxia, 1-3 days) | expression of hypoxia-regulated genes [5] | oxygen consumption [6] | HIF-1α stabilization (western blot) (HIF-1α [2]; [14]) | HIF-1α stabilization (western blot) (HIF-1α [2]; [15]) | L-Lactate levels [8] | expression of hypoxia-regulated genes [9] | mRNA expression of VEGFA and HILPDA [10] | also measured
COC(=O)CNC(=O)C(=O)OC [DMOG] | stabilized HIF-1α in normoxia | – | – | – | – | – | – | – | – | – | – | – | – | HIF-1α stabilization (western blot) (HIF-1α [2]; normoxia, CD14+ and CD14− cells isolated after culture of MEPs for 1 or 2 days): caused robust normoxic stabilization of HIF-1α
CO/C(=C/C(N)=O)[C@H](C)[C@H](/C=C/c1csc(-c2csc([C@@H](C)/C=C/C=C/C(C)C)n2)n1)OC [MXT, myxothiazol] | – | inhibited HRE-driven expression | inhibited it both at 6% O2 and 1% O2 | inhibited it both at 6% O2 and 1% O2 | no statistically significant effect | induced SDHB mRNA editing in normoxia | suppressed | completely suppressed oxygen consumption | appeared to enhance the stabilization of HIF-1α in hypoxic monocytes in two of three donors | did not robustly stabilize HIF-1α | increased relative to the degree of respiratory inhibition | suppressed | statistically significantly increased | HRE-driven expression (ratio of HRE/Renilla luciferase activities) ([3]; 1% O2, 24 hours): inhibited HRE-driven expression; SDHB c.136 C>U RNA editing ([4]; mild hypoxia (6% O2)): increased the editing level; stabilization of HIF-1α (HIF-1α [7]; THP-1, hypoxia 1% O2, 24 hours): inhibited it even at 1% O2
O=C(CC(=O)C(F)(F)F)c1cccs1 [TTFA, 2-Thenoyltrifluoroacetone] | – | – | – | – | – | also induced RNA editing in normoxia | – | – | – | – | – | – | – | –
COc1[nH]c(O)c(C(=O)[C@@H](C)C[C@H](C)[C@@H](Cl)CCl)c(=O)c1OC [AtA5, 3-((2S,4S,5R)-5,6-dichloro-2,4-dimethylhexanoyl)-2-hydroxy-5,6-dimethoxypyridin-4(1H)-one] | not AtA5 stabilized HIF-1α | statistically significantly suppressed | only at 6% O2 | inhibited stabilization of HIF-1α only at 6% O2 | did not further increase RNA editing levels | induced SDHB c.C136U RNA editing | suppressed | reduced but did not abolish it | appeared to enhance the stabilization of HIF-1α in hypoxic monocytes in two of three donors | did not robustly stabilize HIF-1α | increased relative to the degree of respiratory inhibition | suppressed | statistically significantly increased | weak HIF-1α expression in normoxia (HIF-1α [1]; HEK293T, normoxia, 24 hours, AtA5 1 μM): suppressed the weak HIF-1α expression in normoxia; SDHB c.136 C>U RNA editing, AtA5 together with IFN1 ([4]; hypoxia with IFN1): no additional effect; SDHB c.136 C>U RNA editing, AtA5 together with IFN1 ([4]; normoxia, IFN1 600 U/ml): additive; SDHB c.136C>U RNA editing (mean±SEM) [11]: 32.1%±14.9%; stabilization of HIF-1α (HIF-1α [7]; THP-1, normoxia, 24 hours): antagonized weak normoxic stabilization of HIF-1α; expression of selected genes (ADM, ELL2, HILPDA, NGLY1, MET, TKTL1 and VEGFA), RT-qPCR ([10]; CD14+ cells, AtA5/normoxia day 2): induction of selected highly-expressed genes; transcriptional upregulation of A3A ([10]; CD14+ cells, AtA5/normoxia, RNA seq): without transcriptional upregulation of A3A; RNA editing in genes other than SDHB ([10]; CD14+ cells, RNA seq analysis): induction of RNA editing in genes other than SDHB
CC(=O)N(O)CCCCCNC(=O)CCC(=O)N(O)CCCCCNC(=O)CCC(=O)N(O)CCCCCN.CS(=O)(=O)O [DFO] | stabilized HIF-1α in normoxia | – | – | – | – | – | – | – | – | – | – | – | – | –
